# Values joined by “and” are separate entries in the source; they are usually repeats but may differ in a detail not shown here. Equal entries are not always repeated.
# Key:
# [1] = SRA737 monotherapy clinical study (SRA737-01), pharmacokinetics; type: in vivo, human
# Protocol: A Phase 1 clinical trial was conducted in ‘all comers,’ i.e. no genetic selection was performed, to establish safety, tolerability and pharmacokinetics (“Dose Escalation Phase”). Cohorts consisting initially of a single subject received escalating doses of SRA737, starting in Cohort 1 with 20 mg/day administered orally on a continuous daily dosing schedule in 28 day cycles. the dose was escalated until the maximum tolerated dose (MTD) was identified.
# Cmin was calculated at 1000 mg QD (411 ng/mL) and exceeded that determined in preclinical models to be effective. Doses ≥300 mg QD also exceeded the preclinical models to be effective.
# A Dose Escalation phase employed an accelerated titration design starting at 20 mg SRA737, administered QD orally in 28-day cycles. Incremental dose escalations in single-subject cohorts were followed by a rolling-6 design once SRA737-related ≥Grade 2 toxicity was observed during Cycle 1.
# The plasma pharmacokinetics of SRA737 were reproducible and generally dose concordant. […] All doses ≥300 mg QD also exceeded this threshold level.
# plasma protein [2] = assay: Plasma protein binding, rapid equilibrium dialysis, dog plasma; type: in vitro ADME; conditions: 10 μM
# Protocol: (§1) The PK of SRA737 have been determined in the mouse, rat, dog and monkey following oral and IV administration (Table 3). […] An acceptable terminal elimination t1/2 was also observed in each species. […] The plasma protein binding of SRA737 at 1 and 10 μM was examined in mouse, minipig, monkey and human plasma using ultracentrifugation and in dog plasma (10 μM) using rapid equilibrium dialysis.
# plasma protein [3] = assay: Plasma protein binding, ultracentrifugation, monkey plasma; type: in vitro ADME
# Protocol: as §1
# [4] = system: genetically defined tumors (HGSOC, CRC, mCRPC, NSCLC, SCCHN, SCCA); assay: SRA737 monotherapy clinical study (SRA737-01), anti-tumor activity per RECIST v1.1; type: in vivo, human
# Protocol: An in-human clinical trial is conducted to confirm efficacy of SRA737 monotherapy methods of treatment and patient selection strategies disclosed herein for prospectively-selected genetically-defined subjects with tumor types known to have a high prevalence of genomic alterations expected to sensitize the tumor to Chk1 inhibition (“Cohort Expansion Phase”). The Cohort Expansion Phase consists of 6 indication-specific expansion cohorts of approximately 20 prospectively-selected genetically-defined subjects each. The cohorts are subjects with previously treated metastatic colorectal cancer [CRC], high grade serous ovarian cancer [HGSOC] without CCNE1 gene amplification, HGSOC with CCNE1 gene amplification (or alternative genetic alteration with similar functional effect), metastatic castration-resistant prostate cancer [mCRPC], advanced non-small cell lung cancer [NSCLC], and squamous cell carcinoma of the head and neck [HNSCC], or squamous cell carcinoma of the anus [SCCA]. Subjects are initially administered SRA737 following the dosing regimen established in Example 4. The dosing regimen in some cases changes during the course of the trial.
# All subjects who have measurable disease, receive at least one cycle of SRA737 and have a baseline plus at least 1 post-baseline assessment of disease are evaluable for response. Subjects who develop clear evidence of PD without a formal disease assessment and those without a formal disease assessment before study withdrawal are considered non-responders. Complete responses and PRs are required to be confirmed by a subsequent assessment at least 4 weeks later. Stable Disease (SD) determination requires that the relevant criteria be met at least once, a minimum of 6 weeks after the initial dose of SRA737 is given.
# Response criteria are defined below: • a. Complete Response (CR): Disappearance of all target lesions. Any pathological lymph nodes (whether target or non-target), in general, have reduction in short axis to <10 mm. • b. Partial Response (PR): At least a 30% decrease in the sum of diameters of target lesions, taking as reference the baseline sum diameters. • c. Progressive Disease (PD): At least a 20% increase in the sum of diameters of target lesions, taking as reference the smallest sum on study (this includes the baseline sum if that is the smallest on study). […] (Note: the appearance of one or more new lesions is also considered progression). • d. Stable Disease (SD): Neither sufficient shrinkage to qualify for PR nor sufficient increase to qualify for PD, taking as reference the smallest sum diameters while on study.
# The Cohort Expansion phase was contemporaneously initiated when circulating plasma concentrations of SRA737 exceeded the minimum effective concentration of SRA737 modelled from murine efficacy studies. Thereafter, experience gained in the ongoing Dose Escalation phase informed dose selection for expansion cohorts. The Cohort Expansion phase enrolled subjects with genetically defined tumors that harbored genomic alterations hypothesized to confer sensitivity to Chk1 inhibition, which were prospectively selected by next-generation sequencing (FoundationOne). Subjects with the following tumors were eligible for enrollment: ia) high grade serous ovarian cancer (HGSOC), ib) HGSOC putatively enriched for CCNE1 gene network amplification, ii) colorectal cancer (CRC), iii) metastatic castration-resistant prostate cancer (mCRPC), iv) non-small cell lung cancer (NSCLC), and v) squamous cell carcinomas (head and neck (SCCHN); anus (SCCA)).
# Preliminary anti-tumor activity was assessed by target tumor response and overall response in accordance with RECIST v1.1.
# Single dose PK, mouse = type: in vivo; conditions: Mouse oral 10 mg/kg single dose
# Description: Several studies have been conducted to evaluate the PK properties of SRA737, such as the absorption (in vitro permeability assays and in vivo PK following IV and oral administration), distribution (in vivo tissue distribution and in vitro plasma protein binding) and metabolism (in vitro hepatocyte and CYP inhibition and induction studies) of SRA737.
# as §1
# [5] = FA/BRCA gene network alterations
structure (smiles),measurement,setting,value
"N#Cc1cnc(Nc2cc(NCC3CNCCO3)c(C(F)(F)F)cn2)cn1 (centres unmarked) [SRA737, 5-[[4-[[morpholin-2-yl]methylamino]-5-(trifluoromethyl)-2-pyridyl]amino]pyrazine-2-carbonitrile]",CL/F,"[1]; human, in vivo, 160 mg",70.0 L/h
same,Vd/F,"[1]; human, in vivo, 160 mg",1390 L
same,CL/F,"[1]; human, in vivo, 300 mg",81.9 L/h
same,Vd/F,"[1]; human, in vivo, 300 mg",1020 L
same,t1/2,"[1]; human, in vivo, 300 mg",8.6 h
same,CL/F,"[1]; human, in vivo, 600 mg",56.9 L/h
same,Vd/F,"[1]; human, in vivo, 600 mg",1090 L
same,AUC(0-t),"[1]; human, in vivo, 800 mg",18500 ng·h/mL
same,CL/F,"[1]; human, in vivo, 800 mg",39.1 L/h
same,Cmax,"[1]; human, in vivo, 800 mg",1880 ng/mL
same,Vd/F,"[1]; human, in vivo, 800 mg",596 L
same,t1/2,"[1]; human, in vivo, 800 mg",10.5 h
same,AUC0-24 h,"[1]; human, in vivo, 1000 mg",20270 ng·h/mL
same,CL/F,"[1]; human, in vivo, 1000 mg",44.9 L/h
same,Cmax,"[1]; human, in vivo, 1000 mg",2098 ng/mL
same,Vd/F,"[1]; human, in vivo, 1000 mg",704 L
same,CL/F,"[1]; human, in vivo, 1300 mg",38.6 L/h
same,Vd/F,"[1]; human, in vivo, 1300 mg",625 L
same,doses at which Cmin exceeded that effective in preclinical models,[1]; monotherapy,≥ 300 mg QD
same,Cmin,[1]; monotherapy PK dose 160 mg (n = 1),31.7 ng/mL
same,Cmin,[1]; monotherapy PK dose 300 mg (n = 1),41.2 ng/mL
same,Cmin,[1]; monotherapy PK dose 600 mg (n = 4),129 ng/mL
same,Cmin,[1]; monotherapy PK dose 800 mg (n = 38),234 ng/mL
same,Cmin,[1]; monotherapy PK dose 1000 mg (n = 44-45),289 ng/mL
same,Cmin,[1]; monotherapy PK dose 1300 mg (n = 3),466 ng/mL
same,Percentage Bound,plasma protein [2],68.8%
same,Percentage Free,plasma protein [2],31.2%
same,Percentage Bound,plasma protein [3]; 1 μM,88.8%
same,Percentage Free,plasma protein [3]; 1 μM,11.2%
same,Percentage Bound,plasma protein [3]; 10 μM,85.8%
same,Percentage Free,plasma protein [3]; 10 μM,14.2%
same,confirmed RECIST partial or complete response,[4],no subject had a confirmed RECIST partial or complete response
same,responses of subjects with unambiguously positive CCNE1 amplification,[4]; 4/24 HGSOC subjects,3 SD and 1 Progressive Disease (PD)
same,subjects with best overall response of SD,[4]; 107 subjects treated,34 (32%) n (%)
same,DCR,[4]; CCNE gene network alterations,67%
same,DCR,[4]; [5],71%
same,DOS,[4]; [5],3.8 cycles
same,Disease Control Rate (DCR),[4]; HGSOC cohort,54%
same,maximal target tumor decreases,[4]; HGSOC subjects,27% and 29%
same,anti-tumor activity by tumor type,"[4]; HGSOC, CRC, mCRPC and NSCLC tumors",Anti-tumor activity was observed
same,DCR,"[4]; PI3K gene network alterations (PIK3CA, AKT, PTEN)",77%
same,PDs,[4]; RAS network mutations,15/20
same,duration on study (DOS),[4]; RAS network mutations,2 cycles
same,overall average tumor % change,[4]; RAS network mutations,+20%
same,DCR,[4]; activating mutations in the RAS network,25%
same,subjects with durable stable disease (SD) lasting ≥4 months,[4]; data cut off 3 May 2019,22 (21%) n (%)
same,Foral,"Single dose PK, mouse",105%

# Reference: patent US20220226338A1, “Methods of Treating Cancer Using CHK1 Inhibitors” (Sierra Oncology, Inc., priority 2019, published 2022)
